Laboratory results reported in PubChem BioAssay AID328 (DTP/NCI, 2004).
Inconclusive results and toxic doses are left out. Non-standard residues stand in square brackets, D forms with d. Residues, ends and D or L forms follow the SMILES beside them. ξ: configuration not given here. ξPhe(4-N(CH2CH2Cl)2) = NC(Cc1ccc(N(CCCl)CCCl)cc1)C(=O)O

Test system: BDF1 mice, P388 leukemia ip, median survival T/C
Assay: NCI In Vivo Anticancer Drug Screen. Data for tumor model P388 Leukemia (intraperitoneal) in B6D2F1 (BDF1) mice
Conditions: endpoint: median survival time, higher = longer survival
How it was run: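 Steps: implant the tumour, treat one group with compound and another with vehicle, record survival, then divide treated by control.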

[1] = dose: 100.0 mg/kg/injection, schedule: Q01DX009 (ip), vehicle: Klucel (hydroxypropylcellulose) (HPC)
[2] = dose: 100.0 mg/kg/injection, schedule: Q04DX003 (ip), vehicle: Klucel (hydroxypropylcellulose) (HPC)
[3] = dose: 200.0 mg/kg/injection, schedule: Q01DX009 (ip), vehicle: Klucel (hydroxypropylcellulose) (HPC)
[4] = dose: 200.0 mg/kg/injection, schedule: Q04DX003 (ip), vehicle: Klucel (hydroxypropylcellulose) (HPC)
[5] = dose: 400.0 mg/kg/injection, schedule: Q01DX009 (ip), vehicle: Klucel (hydroxypropylcellulose) (HPC)
[6] = dose: 400.0 mg/kg/injection, schedule: Q04DX003 (ip), vehicle: Klucel (hydroxypropylcellulose) (HPC)
[7] = dose: 100.0 mg/kg/injection, schedule: Q01DX009 (ip), vehicle: saline with Tween-80
[8] = dose: 132.0 mg/kg/injection, schedule: Q04DX003 (ip), vehicle: saline with Tween-80
[9] = dose: 200.0 mg/kg/injection, schedule: Q04DX003 (ip), vehicle: saline with Tween-80
[10] = dose: 200.0 mg/kg/injection, schedule: Q01DX009 (ip), vehicle: saline with Tween-80
[11] = dose: 400.0 mg/kg/injection, schedule: Q01DX009 (ip), vehicle: saline with Tween-80
[12] = dose: 200.0 mg/kg/injection, schedule: Q01DX009 (ip), vehicle: saline
[13] = dose: 400.0 mg/kg/injection, schedule: Q01DX009 (ip), vehicle: saline
[14] = dose: 50.0 mg/kg/injection, schedule: Q01DX009 (ip), vehicle: saline
[15] = dose: 100.0 mg/kg/injection, schedule: Q01DX009 (ip), vehicle: saline
[16] = dose: 50.0 mg/kg/injection, schedule: Q01DX009 (ip), vehicle: saline with Tween-80

## CCC(=O)OCc1ccc(Cl)cc1
dose: 75.0 mg/kg/injection, schedule: Q04DX003 (ip), vehicle: Klucel (hydroxypropylcellulose) (HPC)
  T/C: 100 % of control
dose: 150.0 mg/kg/injection, schedule: Q04DX003 (ip), vehicle: Klucel (hydroxypropylcellulose) (HPC)
  T/C: 100 % of control
dose: 300.0 mg/kg/injection, schedule: Q04DX003 (ip), vehicle: Klucel (hydroxypropylcellulose) (HPC)
  T/C: 100 % of control

## N#C[SH2+].N#C[SH2+].N#C[SH2+].N#C[SH2+].[Cu+2].c1ccc(C[P+](c2ccccc2)(c2ccccc2)c2ccccc2)cc1
dose: 100.0 mg/kg/injection, schedule: Q01DX001 (ip), vehicle: saline with Tween-80
  T/C: 100 % of control

## C[CH2][Pb]([CH2]C)([CH2]C)[O]C(=O)CBr
dose: 2.0 mg/kg/injection, schedule: Q01DX009 (ip), vehicle: other
  T/C: 109 % of control
dose: 4.5 mg/kg/injection, schedule: Q01DX009 (ip), vehicle: other
  T/C: 101 % of control
dose: 6.0 mg/kg/injection, schedule: Q01DX009 (ip), vehicle: Klucel (hydroxypropylcellulose) (HPC)
  T/C: 120 % of control
dose: 12.0 mg/kg/injection, schedule: Q01DX009 (ip), vehicle: Klucel (hydroxypropylcellulose) (HPC)
  T/C: 103 % of control

## COc1cc2c(cc1OC)C(=O)C(C(=O)c1ccccc1)C2 (centres undefined)
[1]
  T/C: 100 % of control
[2]
  T/C: 100 % of control
[3]
  T/C: 100 % of control
[4]
  T/C: 100 % of control
[5]
  T/C: 91 % of control
[6]
  T/C: 112 % of control

## ClCCN(CCCl)c1ccc2c3c(cccc13)-c1ccccc1-2
dose: 66.0 mg/kg/injection, schedule: Q01DX009 (ip), vehicle: saline with Tween-80
  T/C: 151 % of control
[7]
  T/C: 177 % of control
[8]
  T/C: 160 % of control
dose: 150.0 mg/kg/injection, schedule: Q01DX009 (ip), vehicle: saline with Tween-80
  T/C: 214 % of control
[9]
  T/C: 182 % of control
dose: 300.0 mg/kg/injection, schedule: Q04DX003 (ip), vehicle: saline with Tween-80
  T/C: 226 % of control

## CC1(C)CNC2OC1NCC2(C)C
dose: 100.0 mg/kg/injection, schedule: Q01DX001 (ip), vehicle: saline sonified
  T/C: 100 % of control
dose: 200.0 mg/kg/injection, schedule: Q01DX001 (ip), vehicle: saline sonified
  T/C: 100 % of control
dose: 400.0 mg/kg/injection, schedule: Q01DX001 (ip), vehicle: saline sonified
  T/C: 104 % of control

## CCO/C=C1\SC(=S)N(c2cccc(OC)c2)C1=O
dose: 100.0 mg/kg/injection, schedule: Q04DX003 (ip), vehicle: saline with Tween-80
  T/C: 122 % of control

## CC1(C)c2c3ccccc3cc3cccc(c23)[S+]1c1ccccc1 (centres undefined)
dose: 10.0 mg/kg/injection, schedule: Q01DX009 (ip), vehicle: saline with Tween-80
  T/C: 120 % of control

## C=Cc1ccccc1-c1ccccc1C(=O)OC
[9]
  T/C: 87 % of control
dose: 400.0 mg/kg/injection, schedule: Q04DX003 (ip), vehicle: saline with Tween-80
  T/C: 105 % of control

## COC(=O)N1c2ccc(OC)cc2C=CC1C#N (centres undefined)
[7]
  T/C: 100 % of control
[10]
  T/C: 100 % of control
[11]
  T/C: 100 % of control

## CC(=O)Oc1ccc[nH]c1=O
[12]
  T/C: 100 % of control
dose: 264.0 mg/kg/injection, schedule: Q01DX009 (ip), vehicle: saline with Tween-80
  T/C: 115 % of control
[13]
  T/C: 150 % of control
dose: 600.0 mg/kg/injection, schedule: Q01DX009 (ip), vehicle: saline with Tween-80
  T/C: 115 % of control
dose: 600.0 mg/kg/injection, schedule: Q01DX009 (ip), vehicle: saline
  T/C: 95 % of control

## c1ccc2c(c1)OP(OP1Oc3ccccc3O1)O2
dose: 25.0 mg/kg/injection, schedule: Q01DX009 (ip), vehicle: saline
  T/C: 95 % of control
[14]
  T/C: 113 % of control
dose: 150.0 mg/kg/injection, schedule: Q04DX003 (ip), vehicle: saline
  T/C: 113 % of control

## CC1OC(OC2C(O)C(O)C(O)C(O)C2O)C(N)CC1N=C(N)C(=O)O (centres undefined)
[15]
  T/C: 91 % of control
[12]
  T/C: 100 % of control
[13]
  T/C: 116 % of control

## NC(=O)c1ncc(-c2ccccc2)[nH]c1=O
[14]
  T/C: 104 % of control
[15]
  T/C: 100 % of control
[12]
  T/C: 109 % of control

## C=C(C)C(=O)Oc1ccc([N+](=O)[O-])cc1
[16]
  T/C: 96 % of control
[7]
  T/C: 113 % of control
[10]
  T/C: 98 % of control

## CCOC(=O)C(/C=N/C(N)=O)=C(\C)O
[1]
  T/C: 87 % of control
[2]
  T/C: 100 % of control
[3]
  T/C: 95 % of control
[4]
  T/C: 95 % of control
[5]
  T/C: 87 % of control
[6]
  T/C: 95 % of control

## c1ccc2c(c1)-c1cccc3cccc-2c13
[16]
  T/C: 98 % of control
[7]
  T/C: 102 % of control
[10]
  T/C: 100 % of control

## CC(=O)Oc1c(C)c2c(O)c3c1C1=C(OCOC1=C(C)C3=O)C(C)=CC(C)(O)C(O)C(C)C(O)C1C(=O)OC(C(C)/C=C\C=C(C)C(=O)N2)C(C)C1O (centres undefined)
[1]
  T/C: 119 % of control
[3]
  T/C: 123 % of control
[5]
  T/C: 110 % of control

## Cc1ccc(S(=O)(=O)Oc2cc(C)ccc2C)cc1
dose: 25.0 mg/kg/injection, schedule: Q04DX003 (ip), vehicle: Klucel (hydroxypropylcellulose) (HPC)
  T/C: 105 % of control
dose: 50.0 mg/kg/injection, schedule: Q04DX003 (ip), vehicle: Klucel (hydroxypropylcellulose) (HPC)
  T/C: 95 % of control
[7]
  T/C: 114 % of control
[2]
  T/C: 105 % of control
[10]
  T/C: 109 % of control
[11]
  T/C: 114 % of control

## COC1C(OC(=O)/C=C/C=C/C=C/C=C/C(=O)O)CCC2(CO2)C1C1(C)OC1CC=C(C)C (centres undefined)
dose: 88.0 mg/kg/injection, schedule: Q04DX003 (ip), vehicle: saline with Tween-80
  T/C: 281 % of control
dose: 100.0 mg/kg/injection, schedule: Q04DX003 (ip), vehicle: saline
  T/C: 100 % of control
[8]
  T/C: 281 % of control
dose: 200.0 mg/kg/injection, schedule: Q04DX003 (ip), vehicle: saline
  T/C: 117 % of control

## CCSC1(SCC)C(=O)OC2=C(CCCC2)C1N(C)c1ccccc1 (centres undefined)
[16]
  T/C: 96 % of control
[7]
  T/C: 94 % of control
[10]
  T/C: 91 % of control

## c1ccc(N2CCNCC2)cc1
dose: 6.25 mg/kg/injection, schedule: Q04DX003 (ip), vehicle: saline sonified
  T/C: 95 % of control
dose: 12.5 mg/kg/injection, schedule: Q04DX003 (ip), vehicle: saline sonified
  T/C: 100 % of control
dose: 25.0 mg/kg/injection, schedule: Q04DX003 (ip), vehicle: saline sonified
  T/C: 104 % of control

## O=C(O)CCCOc1cc(Cl)c(Cl)cc1Cl
dose: 50.0 mg/kg/injection, schedule: Q01DX009 (ip), vehicle: gum acacia
  T/C: 107 % of control
dose: 50.0 mg/kg/injection, schedule: Q04DX003 (ip), vehicle: gum acacia
  T/C: 100 % of control
dose: 100.0 mg/kg/injection, schedule: Q01DX009 (ip), vehicle: gum acacia
  T/C: 107 % of control
dose: 100.0 mg/kg/injection, schedule: Q04DX003 (ip), vehicle: gum acacia
  T/C: 104 % of control
dose: 200.0 mg/kg/injection, schedule: Q01DX009 (ip), vehicle: gum acacia
  T/C: 107 % of control
dose: 200.0 mg/kg/injection, schedule: Q04DX003 (ip), vehicle: gum acacia
  T/C: 122 % of control

## CCOC(=O)C(Cc1ccc(N(CCCl)CCCl)cc1)NC(=O)C(Cc1ccccc1)NC(=O)C(NC(=O)CNC(=O)C1CCCN1)C(C)C (centres undefined) (H-PGVF[ξPhe(4-N(CH2CH2Cl)2)]-OEt; configuration not given here)
dose: 5.0 mg/kg/injection, schedule: Q04DX003 (ip), vehicle: water
  T/C: 95 % of control
dose: 10.0 mg/kg/injection, schedule: Q04DX003 (ip), vehicle: water
  T/C: 100 % of control
dose: 20.0 mg/kg/injection, schedule: Q04DX003 (ip), vehicle: water
  T/C: 176 % of control
dose: 40.0 mg/kg/injection, schedule: Q04DX003 (ip), vehicle: water
  T/C: 241 % of control
dose: 80.0 mg/kg/injection, schedule: Q04DX003 (ip), vehicle: water
  T/C: 265 % of control

## CC1CC(C)(C)N=C(C(C)(C)c2ccccc2)O1 (centres undefined)
dose: 50.0 mg/kg/injection, schedule: Q04DX003 (ip), vehicle: saline sonified
  T/C: 100 % of control
dose: 100.0 mg/kg/injection, schedule: Q04DX003 (ip), vehicle: saline sonified
  T/C: 100 % of control
dose: 200.0 mg/kg/injection, schedule: Q04DX003 (ip), vehicle: saline sonified
  T/C: 90 % of control
